Literature values as cited in US11345706B2, “Crystalline forms of Acalabrutinib” (Apotex Inc., priority 2017, dated 2022).

- Biopharmaceutics Classification System (BCS) solubility classification: poorly soluble drug
- pH-dependent solubility (pH values of greater than 4, reported in U.S. Pat. No. 9,796,721 B2): practically insoluble
Compound: CC#CC(=O)N1CCC[C@H]1c1nc(-c2ccc(C(=O)Nc3ccccn3)cc2)c2c(N)nccn12 [Acalabrutinib, 4-{8-amino-3-[(2S)-1-(but-2-ynoyl)pyrrolidin-2-yl]imidazo[1,5-a]pyrazin-1-yl}-N-(pyridin-2-yl)benzamide]
